Measured values reported in ChEMBL document CHEMBL4706668, “Minimization of apoptosis-inducing CPP-Bim peptide” (Bioorg Med Chem Lett, 2021).
Active and inactive are the calls of the source. The calls are words filed in the database; no cut-off is given here. Residues, ends and D or L forms follow the SMILES beside them.

Assays:
HeLa [1] = test: Induction of apoptosis in human HeLa cells at 10 uM incubated for 3 hrs followed by compound washout by NucView-488 staining based fluorescence microscopy; format: functional, cell-based
CHO [2] = test: Induction of apoptosis in CHO cells at 10 uM incubated for 3 hrs followed by compound washout by NucView-488 staining based fluorescence microscopy; format: cell-based, Cricetulus griseus; conditions: chinese hamster
[3] = Drug distribution in cytosol of human HeLa cells at 2 uM incubated for 3 hrs followed by compound washout and subsequent irradiation with mercury lamp at 10J/cm2 using Alexa Fluor-546 labeled compound by fluorescence microscopy; format: ADME, subcellular
HeLa [4] = test: Induction of apoptosis in human HeLa cells at 10 uM incubated for 3 hrs followed by compound washout by NucView-488 staining based fluorescence microscopy relative to control; format: functional
CHO [5] = test: Induction of apoptosis in CHO cells at 10 uM incubated for 3 hrs followed by compound washout by NucView-488 staining based fluorescence microscopy relative to control; format: cell-based, Cricetulus griseus; conditions: chinese hamster
HeLa [6] = test: Induction of apoptosis in human HeLa cells at 2 uM incubated for 3 hrs followed by compound washout and subsequent irradiation with mercury lamp at 10J/cm2 and further incubated for 3 hrs using Alexa Fluor-546 labeled compound by fluorescence microscopy; format: functional, cell-based

Molecule: CC[C@H](C)[C@H](NC(=O)[C@H](CCCNC(=N)N)NC(=O)[C@H](CCCNC(=N)N)NC(=O)[C@H](CC(C)C)NC(=O)[C@H](CCC(=O)O)NC(=O)[C@H](CS)NC(=O)[C@H](C)NC(=O)[C@@H](NC(=O)[C@H](Cc1c[nH]c2ccccc12)NC(=O)[C@@H](NC(=O)[C@H](CCCNC(=N)N)NC(=O)[C@H](CCCNC(=N)N)NC(=O)[C@H](CCCNC(=N)N)NC(=O)[C@@H](N)CCCNC(=N)N)[C@@H](C)CC)[C@@H](C)CC)C(=O)NCC(=O)N[C@@H](CC(=O)O)C(=O)N[C@@H](CCC(=O)O)C(=O)N[C@@H](Cc1ccccc1)C(=O)N[C@@H](CC(N)=O)C(=O)N[C@@H](C)C(=O)N[C@@H](Cc1ccc(O)cc1)C(=O)N[C@@H](Cc1ccc(O)cc1)C(=O)NCC(=O)N[C@@H](CS)C(=O)O (H-RRRRIWIACELRRIGDEFNAYYGC-OH)
- Activity (HeLa [1]): inactive
- Activity (CHO [2]): Not Active

Molecule: H-RKKRRQRRRAQELRRIGDEFNAYYARGC-OH
- Activity (HeLa [1]): inactive

Molecule: H-RKKRRQRRREIWIAQELRRIGC-OH
- Activity (HeLa [1]): inactive

Molecule: H-RKKRRQRRREIWIAQELRRIGDEFGC-OH
- Activity (HeLa [1]): inactive

Molecule: H-RKKRRQRRREIWIAQELRRIGDEFNAGC-OH
- Activity (HeLa [1]): inactive

Molecule: H-RKKRRQRRREIWIAQELRRIGDEFNAYYARGC-OH
- Drug uptake [3]: Active

Molecule: H-RKKRRQRRREIWIAQELRRIGDEFNAYYGC-OH
- Activity (HeLa [4]): 79%
- Activity (CHO [5]): 44%

Molecule: H-RKKRRQRRREIWIAQELRRIGDGC-OH
- Activity (HeLa [1]): inactive

Molecule: H-RKKRRQRRRIAQELRRIGDEFNAYYARGC-OH
- Activity (HeLa [1]): inactive

Molecule: H-RKKRRQRRRIWIAQELRRIGDEFNAYYARGC-OH
- Activity (HeLa [4]): 85%
- Activity (CHO [5]): 31%

Molecule: H-RKKRRQRRRIWIAQELRRIGDEFNAYYGC-OH
- Drug uptake [3]: Active
- Activity (HeLa [6]): Active

Molecule: H-RKKRRQRRRWGC-OH
- Activity (HeLa [6]): inactive

Molecule: H-RKKRRQRRRWIAQELRRIGDEFNAYYARGC-OH
- Activity (HeLa [1]): Active

Molecule: H-RKKRRQRRRWIAQELRRIGDGC-OH
- Activity (HeLa [1]): Active

Molecule: H-RRIWIAQELRRIGDEFNAYYGC-OH
- Activity (HeLa [1]): inactive
- Activity (CHO [2]): Not Active

Molecule: H-RRRRRRIWIAQELRRIGDEFNAYYGC-OH
- Activity (HeLa [1]): inactive
- Activity (CHO [2]): Not Active

Molecule: H-RRRRRRRRIWIAQELRRIGDEFNAYYGC-OH
- Activity (HeLa [4]): 70%
- Drug uptake [3]: Active
- Activity (HeLa [6]): Active
- Activity (HeLa [1]): Active
